Broadly, the IC50 is the point on the concentration scale where inhibition reaches its midpoint. Read a low IC50 as greater potency in that assay. One may read the half-life as the time in which the quantity being followed falls by half. Low values mean rapid decline, high ones slow decline. What is called AUC(0-inf) is total exposure, with the tail of the curve extrapolated. Higher therefore signals more exposure. Broadly, the AUC(0-t) is the area under the concentration-time curve up to a stated or last time point. A high value points to more exposure. A word on the bioavailability: it is the share of a dose that reaches the circulation, judged against a reference dose that is usually intravenous. Higher therefore signals good availability. The Cmax is the peak of the concentration-time curve. A word on the Tmax: it is the time at which the peak concentration occurs.

One series concerns HL-60. Kind of series: Antiproliferative activity against human HL60 cells incubated for 72 hrs by CCK8 assay. The settings on record: HL-60, 72 h. Background: Tetrazolium assays rely on reduction of a dye to a coloured formazan, in cell work by metabolically active cells.
The next series relates to WI-38. Kind of series: Antiproliferative activity against human WI-38 cells incubated for 72 hrs by MTT assay. The note with it: WI-38, 72 h.
A further series concerns HT-29. As to the kind of experiment: Antiproliferative activity against human HT29 cells incubated for 72 hrs by MTT assay. The note with it: HT-29, 72 h.
For series [1], the target named is T1, Bromodomain-containing protein 4 (Homo sapiens, UniProt O60885). As to the kind of experiment: Inhibition of BRD4 BD1 (unknown origin) preincubated for 15 mins followed by peptide addition and measured after 60 mins by TR-FRET assay. On the technique in general: TR-FRET usually uses a lanthanide donor and a delayed reading to cut background.
Series [2] has as its target T2, Bromodomain-containing protein 2 (Homo sapiens, UniProt P25440). Kind of series: Inhibition of BRD2 BD1 (unknown origin) preincubated for 15 mins followed by peptide addition and measured after 60 mins by TR-FRET assay.
Series [3] deals with T2, Bromodomain-containing protein 2. Kind of series: Inhibition of BRD2 BD2 (unknown origin) preincubated for 15 mins followed by peptide addition and measured after 60 mins by TR-FRET assay.
Series [4] has as its target T1, Bromodomain-containing protein 4. Kind of series: Inhibition of BRD4 BD2 (unknown origin) preincubated for 15 mins followed by peptide addition and measured after 60 mins by TR-FRET assay.
A short description of series [5]: Half life in Wistar rat at 15 mg/kg, po measured up to 24 hrs by LC-MS/MS analysis. It is filed as ADME, organism-based. The note with it: in vivo.
A short description of series [6]: AUC(0 to infinity) in Wistar rat at 15 mg/kg, po measured up to 24 hrs by LC-MS/MS analysis. Details: route oral, dose 15 mg/kg, time <=24. The settings on record: in vivo. It is filed as ADME, organism-based.
Series [7] is described as follows: Half life in Wistar rat at 5 mg/kg, iv measured up to 24 hrs by LC-MS/MS analysis. It is filed as ADME, organism-based. The settings on record: in vivo.
Series [8] in a line: Apparent clearance during terminal phase in Wistar rat at 15 mg/kg, po measured up to 24 hrs by LC-MS/MS analysis. It is filed as ADME, organism-based. The settings on record: in vivo, read-out: CLz/F (converted).
Series [9] is described as follows: Apparent clearance during terminal phase in Wistar rat at 5 mg/kg, iv measured up to 24 hrs by LC-MS/MS analysis. The note with it: in vivo. It is filed as ADME, organism-based.
Series [10] in a line: AUC(0 to t) in Wistar rat at 15 mg/kg, po measured up to 24 hrs by LC-MS/MS analysis. It is filed as ADME, organism-based. Details: route oral, dose 15 mg/kg, time <=24. The settings on record: in vivo.
The nature of series [11]: Oral bioavailability in Wistar rat at 15 mg/kg measured up to 24 hrs by LC-MS/MS analysis. It is filed as ADME, organism-based. The note with it: in vivo.
The nature of series [12]: AUC(0 to t) in Wistar rat at 5 mg/kg, iv measured up to 24 hrs by LC-MS/MS analysis. It is filed as ADME, organism-based. More on the design: route intravenous, dose 5 mg/kg, time <=24. The note with it: in vivo.
Series [13] is described as follows: AUC(0 to infinity) in Wistar rat at 5 mg/kg, iv measured up to 24 hrs by LC-MS/MS analysis. It is filed as ADME, organism-based. The settings on record: in vivo. Details: route intravenous, dose 5 mg/kg, time <=24.
Series [14] is described as follows: Cmax in Wistar rat at 15 mg/kg, po measured up to 24 hrs by LC-MS/MS analysis. It is filed as ADME, organism-based. More on the design: route oral, dose 15 mg/kg, time <=24. The settings on record: in vivo.
Series [15] can be described thus: Tmax in Wistar rat at 15 mg/kg, po measured up to 24 hrs by LC-MS/MS analysis. It is filed as ADME, organism-based. The settings on record: in vivo.

T2 sequence (P25440 whole entry): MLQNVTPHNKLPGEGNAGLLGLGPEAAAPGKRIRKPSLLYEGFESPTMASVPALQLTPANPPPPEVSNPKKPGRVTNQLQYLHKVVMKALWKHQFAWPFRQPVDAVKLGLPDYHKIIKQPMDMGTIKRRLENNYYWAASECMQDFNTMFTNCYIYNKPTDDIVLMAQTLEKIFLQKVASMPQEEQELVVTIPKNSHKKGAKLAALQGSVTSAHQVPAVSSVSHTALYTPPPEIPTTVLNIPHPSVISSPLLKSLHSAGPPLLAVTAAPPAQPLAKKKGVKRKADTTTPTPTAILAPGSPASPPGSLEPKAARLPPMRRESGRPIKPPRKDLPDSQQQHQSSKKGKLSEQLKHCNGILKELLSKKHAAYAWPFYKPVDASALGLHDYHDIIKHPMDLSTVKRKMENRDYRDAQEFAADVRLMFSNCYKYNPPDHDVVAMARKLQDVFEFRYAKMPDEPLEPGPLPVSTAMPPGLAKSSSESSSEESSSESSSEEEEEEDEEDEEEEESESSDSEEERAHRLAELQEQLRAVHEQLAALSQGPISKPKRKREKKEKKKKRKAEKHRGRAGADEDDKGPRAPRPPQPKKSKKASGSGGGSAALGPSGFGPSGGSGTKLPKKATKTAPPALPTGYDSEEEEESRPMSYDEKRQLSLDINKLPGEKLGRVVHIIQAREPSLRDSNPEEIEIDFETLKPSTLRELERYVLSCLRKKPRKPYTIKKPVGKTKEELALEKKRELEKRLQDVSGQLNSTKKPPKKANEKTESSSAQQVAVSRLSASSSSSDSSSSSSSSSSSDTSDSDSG

`Cc1sc2c(c1C)C(c1ccc(Cl)cc1)=N[C@@H](CC(=O)OC(C)(C)C)c1nnc(C)n1-2`: the IC50 in the series with HL-60 stood at 160 nM; in the series with WI-38, 4970 nM; in the series on HT-29, 480 nM.
The matching figures for `COc1ccccc1S(=O)(=O)Nc1ccc2c(c1)CN(C)C(=O)N2`: 3990 nM, 19800 nM and 14700 nM.
`CC(C)=C1C(=O)Nc2ccc(NS(=O)(=O)c3cccc4c(N(C)C)cccc34)cc21`: the IC50 in series [1] is 208 nM.
On to `COc1ccc(Br)cc1S(=O)(=O)Nc1ccc2c(c1)C(=C(C)C)C(=O)N2`, for which the IC50 worked out at 23 nM in [1], 39 nM in series [2], 22 nM in [3] and 21 nM in series [4].
In series [1], `COc1ccccc1S(=O)(=O)Nc1ccc2c(c1)C(=C1CCC1)C(=O)N2` came in with an IC50 of 26 nM.
`CC(C)=C1C(=O)Nc2ccc(NS(=O)(=O)C3CCCCC3)cc21` registered an IC50 in series [1] of 22 nM.
With `COc1ccc(S(=O)(=O)Nc2ccc3c(c2)C(=C(C)C)C(=O)N3)cc1`, in series [1], inhibition was half-maximal at 94 nM (IC50).
Take `COc1ccccc1S(=O)(=O)Nc1ccc2c(c1)C(=C(C)C)C(=O)N2`: the figures for the half-life in series [5] and in [7] were 3.59 h and 1.56 h, respectively. Besides, the AUC(0-inf) in series [6] came out at 14600 ng·h/mL; in series [13], 7340 ng·h/mL. In addition, the CL/F in series [8] was 17.2 mL/min/kg. For the same compound, in [9], the CLz/F was found to be 11.3 mL/min/kg. Besides, the IC50 in series [2] came to 24 nM; in [3], 18 nM. In addition, the AUC(0-t) at 24 h in [10] turned out to be 14400 ng·h/mL; in series [12] it was 7300 ng·h/mL. In [11], this compound gave a bioavailability of 66%. This compound gave a Cmax in [14] of 2180 ng/mL. In addition, in series [15], the Tmax was found to be 1 h.
`CC(C)=C1C(=O)Nc2ccc(NS(=O)(=O)c3cccc4ccccc34)cc21` gave an IC50 in [1] of 62 nM.
`COc1ccc(F)cc1S(=O)(=O)Nc1ccc2c(c1)C(=C(C)C)C(=O)N2` gave an IC50 in series [1] of 34 nM.
On the same count and under the same terms, for `COc1ccc(C)cc1S(=O)(=O)Nc1ccc2c(c1)C(=C(C)C)C(=O)N2` the value was 30 nM.
Still for that read-out and setting: to `CC(C)=C1C(=O)Nc2ccc(NS(=O)(=O)c3cc(C)ccc3F)cc21` belongs 20 nM.
Same read-out and setting: for `C/C=C1\C(=O)Nc2ccc(NS(=O)(=O)c3ccccc3OC)cc21` the value was 36 nM.
With `CC/C=C1\C(=O)Nc2ccc(NS(=O)(=O)c3ccccc3OC)cc21`, in series [1], the IC50 worked out at 114 nM.
On the same count and under the same terms, for `CC(C)=C1C(=O)Nc2ccc(NS(=O)(=O)c3cc(F)ccc3F)cc21` the value was 56 nM.
Regarding `CC(C)=C1C(=O)Nc2ccc(NS(=O)(=O)c3ccc4c(c3)CCO4)cc21`, the IC50 in series [1] is 92 nM.
Still for that read-out and setting: to `CC(C)=C1C(=O)Nc2ccc(NS(=O)(=O)c3ccc4ccccc4c3)cc21` belongs 203 nM.
As for `CC(C)=C1C(=O)Nc2ccc(NS(=O)(=O)c3ccccc3Br)cc21`, the IC50 in series [1] came out at 25 nM; in [2] it was 40 nM; in [3], 25 nM; in series [4], 43 nM.
